Patent publication US12234211B2, “Cycloolefin substituted heteroaromatic compounds and their use” (HUTCHISON MEDIPHARMA LIMITED, priority 2017, dated 2025)

Legend:
[1] = molecular target: T1, IDH2-R140Q (Homo sapiens, UniProt P48735, R140Q); assay: Fluorescent determination of IDH2-R140Q cell activity (2-HG in U87MGR140Q cells); type: cell-based; conditions: 72 hours incubation, read-out: IC50 (2-HG inhibition)
T1 construct: expressed in transfected cells
T1 sequence (P48735 40-452 R140Q): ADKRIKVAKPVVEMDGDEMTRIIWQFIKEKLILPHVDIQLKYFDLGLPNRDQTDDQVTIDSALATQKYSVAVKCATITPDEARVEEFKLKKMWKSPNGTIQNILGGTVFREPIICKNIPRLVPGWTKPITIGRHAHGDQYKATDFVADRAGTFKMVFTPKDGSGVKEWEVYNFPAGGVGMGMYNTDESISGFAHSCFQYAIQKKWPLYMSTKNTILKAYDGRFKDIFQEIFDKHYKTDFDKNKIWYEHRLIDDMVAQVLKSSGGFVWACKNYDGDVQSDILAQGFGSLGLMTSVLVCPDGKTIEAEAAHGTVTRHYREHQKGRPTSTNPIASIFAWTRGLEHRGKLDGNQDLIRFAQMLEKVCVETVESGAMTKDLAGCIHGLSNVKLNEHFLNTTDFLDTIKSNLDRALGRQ

[2] = molecular target: T2, IDH1-R132H (Homo sapiens, UniProt O75874, R132H); assay: Fluorescent determination of IDH1-R132H cell activity (2-HG in U87MGR132H cells); type: cell-based; conditions: 2-HG inhibition in U87MGR132H cells transfected with IDH1-R132H mutant plasmid
T2 construct: expressed in transfected cells; host or cells: U87MG cells (U87MGR132H)

[3] = Metabolic stability test in liver microsomes (rat); type: in vitro ADME; conditions: percentage of remaining compound after incubation for 30 minutes vs 0 minute; 1 μM compound; 0.5 mg/mL liver microsomes; 37° C.
Procedure: (§1) Male CD1 mouse liver microsomes was supplied by Research Institute for Liver Diseases (Shanghai) Co., Ltd. Male SD rat liver microsomes was supplied by BioreclamationIVT in US.
(§2) Phenacetin, glucose-6-phosphate (G-6-P), glucose-6-phosphate dehydrogenase (G-6-PD), and nicotinamide adenine dinucleotide phosphate (NADP) were supplied by Sigma-Aldrich (Missouri, USA).
(§3) 10 mM stock solution of test compound: Certain amount of test compound was weighed and dissolved in certain volume of dimethylsulfoxide (DMSO) to get the stock solution of test compound at 10 mM.
(§4) Reaction termination solution: Certain amount of phenacetin as internal standard was weighed and dissolved in acetonitrile to get the reaction termination solution at 1000 ng/mL, and stored at room temperature for use.
(§5) The stock solution of test compound was diluted to the designated concentration with organic solution (usually the mixtures of acetonitrile, methanol and water with different portions depending on the compound solution) to make the final concentration to be 1 μM and the contents of organic solvents no more than 1% (For DMSO, the controlled margin was 0.1%) in the final incubation system. 100 mM NADP, 500 mM G-6-P and 100 U/mL G-6-PDH were mixed and diluted with ultrapure water to provide the NADPH regenerating system containing 1 mM NADP, 5 mM G-6-P and 1 U/mL G-6-PD, which was pre-incubated at 37° C. water-bath for 10 min and then cooled on ice until being added into the reaction system. 20 mg/mL liver microsomes was mixed with 200 mM PBS and diluted with ultrapure water to make the concentrations of liver microsomes and PBS to be 0.5 mg/mL and 50 mM in the final incubation system, respectively. After the diluted liver microsomes was mixed with the NADPH regenerating solution, certain volumes of 100 mM EDTA and 300 mM MgCl2 (concentration of EDTA and MgCl2 in the final incubation system is 1 mM and 3 mM, respectively) were added, and the incubation system was put into 37° C. water bath. The incubation was commenced by adding the stock solution of test compound and maintained for 30 min. The incubation was terminated by adding the reaction termination solution. The 0 min sample was prepared by adding the reaction termination solution to the incubation system immediately prior to putting the system into the water bath with the addition of the stock solution of test compound. The terminated incubation mixtures were vortexed and centrifuged at 4400 rpm for 10 min, and the supernatant was collected for LC-MS/MS analysis.
(§6) The concentration of test compound was determined using LC-MS/MS method. Using the peak area ratio of the compound and the internal standard as an index, the percentage of remaining compound after incubation for 30 minutes as compared with the 0 minute sample was calculated, and the metabolic stability of the compound was evaluated.

[4] = Metabolic stability test in liver microsomes (mouse); type: in vitro ADME; conditions: percentage of remaining compound after incubation for 30 minutes vs 0 minute; 1 μM compound; 0.5 mg/mL liver microsomes; 37° C.
Procedure: as §1, §2, §3, §4, §5, §6

T2 sequence (O75874 whole entry R132H): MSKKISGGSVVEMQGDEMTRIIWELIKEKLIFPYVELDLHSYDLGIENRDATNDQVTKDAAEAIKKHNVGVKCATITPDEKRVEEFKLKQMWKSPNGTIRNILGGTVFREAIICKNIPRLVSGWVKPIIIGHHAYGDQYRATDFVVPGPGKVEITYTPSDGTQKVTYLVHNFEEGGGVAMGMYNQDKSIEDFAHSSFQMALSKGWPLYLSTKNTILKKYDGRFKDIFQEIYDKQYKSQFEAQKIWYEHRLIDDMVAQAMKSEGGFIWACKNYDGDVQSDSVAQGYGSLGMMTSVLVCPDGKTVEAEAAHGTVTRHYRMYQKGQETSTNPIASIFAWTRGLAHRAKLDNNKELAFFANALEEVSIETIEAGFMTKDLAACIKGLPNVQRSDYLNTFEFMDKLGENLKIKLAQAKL

SMILES	IC50 [1]	IC50 [2]	Rat liver microsome stability [3]	Mouse liver microsome stability [4]
C[C@@H](Nc1nc(NC2CC(F)(F)C2)nc(C2=C(F)C(O)C(F)CC2)n1)C(F)(F)F (single isomer, unassigned) [Compound 227]	48 nM	81 nM	88.8%	81.4%
OC1C(F)=C(c2nc(NC3CC(F)(F)C3)nc(NC3CC(F)(F)C3)n2)CCC1(F)F (centres unmarked) [Compound 203]	98 nM	733 nM	92.1%	91.3%
C[C@@H](Nc1nc(N[C@@H]2CCC(F)(F)C2)nc(C2=C(F)C(O)C(F)(F)CC2)n1)C(F)(F)F (mixture of isomers) [Compound 235]	130 nM	246 nM	89.0%	75.5%
[2H]C1([2H])CCC(c2nc(NC3CC(F)(F)C3)nc(NC3CC(F)(F)C3)n2)=C(F)C1([2H])O (racemic) [Compound 91]	58 nM	–	86.6%	70.5%
C[C@@H](Nc1nc(NC2CCC2)nc(C2=C(F)C(O)CCC2)n1)C(F)(F)F (mixture of isomers) [Compound 7]	87 nM	1500 nM	50.3%	49.8%
[2H]C1([2H])CCC(c2nc(NC3CC(F)(F)C3)nc(N[C@@H](C)C(F)(F)F)n2)=C(F)C1O (some centres unmarked) [Compound 84]	48 nM	268 nM	67.8%	78.9%
C[C@@H](Nc1nc(N[C@H](C)C(F)(F)F)nc(C2=C(F)C(O)CCC2)n1)C(F)(F)F (mixture of isomers) [Compound 2]	137 nM	365 nM	99.0%	83.8%
C[C@H](Nc1nc(NC2CC(F)(F)C2)nc(C2=C(F)C(O)C(F)(F)CC2)n1)C(F)(F)F (mixture of isomers) [Compound 239]	46 nM	344 nM	93.0%	91.8%
C[C@@H](Nc1nc(N[C@H](C)C(F)(F)F)nc(C2=C(F)C(O)C(F)(F)CC2)n1)C(F)(F)F (mixture of isomers) [Compound 196]	94 nM	210 nM	100.0%	95.2%
C[C@@H](Nc1nc(N[C@H](C)C(F)(F)F)nc(C2=CC(O)CCC2)n1)C(F)(F)F (mixture of isomers) [Compound 126]	86 nM	289 nM	79.8%	58.2%
[2H]C1([2H])CCC(c2nc(N[C@H](C)C(F)(F)F)nc(N[C@H](C)C(F)(F)F)n2)=C(F)C1([2H])O (mixture of isomers) [Compound 83, 3-(4,6-bis(((R)-1,1,1-trifluoropropan-2-yl)amino)-1,3,5-triazin-2-yl)-2-fluorocyclohex-2-en-1,6,6-D3-1-ol]	–	–	96.6%	83.7%
CC(C)Nc1nc(N[C@H](C)C(F)(F)F)nc(C2=CC(O)CCC2)n1 (mixture of isomers) [Compound 124, 3-(4-(Isopropylamino)-6-(((R)-1,1,1-trifluoropropan-2-yl)amino)-1,3,5-triazin-2-yl)cyclohex-2-en-1-ol]	137 nM	658 nM	74.1%	44.1%
C[C@@H](Nc1nc(N[C@@H]2CCC(F)(F)C2)nc(C2=C(F)C(O)C(F)CC2)n1)C(F)(F)F (single isomer, unassigned) [Compound 232]	40 nM	70 nM	86.6%	76.3%
OC1C=C(c2nc(NC3CC(F)(F)C3)nc(NC3CC(F)(F)C3)n2)CCC1 (centres unmarked) [Compound 127]	64 nM	203 nM	49.8%	28.7%
C[C@@H](Nc1nc(NC2CCC(F)(F)C2)nc(C2=CC(O)CCC2)n1)C(F)(F)F (mixture of isomers) [Compound 177]	46 nM	94 nM	45.9%	31.0%
C[C@@H](Nc1nc(N[C@H](C)C(F)(F)F)nc(C2=C(F)C(O)C(F)(F)CC2)n1)C(F)(F)F (single isomer, unassigned) [Compound 197]	41 nM	120 nM	99.5%	98.4%
CC(Nc1nc(NC2CC(F)(F)C2)nc(C2=C(F)C(O)CCC2)n1)C(F)(F)F (racemic) [Compound 4]	80 nM	750 nM	62.9%	82.1%
C[C@@H](Nc1nc(N[C@H](C)C(F)(F)F)nc(C2=C(F)C(O)C(F)CC2)n1)C(F)(F)F (single isomer, unassigned) [Compound 98]	344 nM	254 nM	99.2%	83.7%
[2H]C1([2H])CCC(c2nc(NC3CC(F)(F)C3)nc(N[C@@H](C)C(F)(F)F)n2)=C(F)C1([2H])O (mixture of isomers) [Compound 90]	–	–	82.4%	80.9%
C[C@@H](Nc1nc(NC2CCC2)nc(C2=CC(O)CCC2)n1)C(F)(F)F (mixture of isomers) [Compound 128]	92 nM	–	34.0%	15.9%
[2H]C1(O)C(F)=C(c2nc(N[C@H](C)C(F)(F)F)nc(N[C@H](C)C(F)(F)F)n2)CCC1F (stereo partly drawn) [Compound 266, 3-(4,6-Bis(((R)-1,1,1-trifluoropropan-2-yl)amino)-1,3,5-triazin-2-yl)-2,6-difluorocyclohex-2-en-1-D-1-ol]	–	–	98.2%	91.5%
C[C@@H](Nc1nc(NCCF)nc(C2=C(F)C(O)CCC2)n1)C(F)(F)F (some centres unmarked) [Compound 240]	984 nM	> 10000 nM	–	–
C[C@@H](Nc1nc(N[C@H](C)C(F)(F)F)nc(C2=C(F)C(=O)C(F)CC2)n1)C(F)(F)F (mixture of isomers) [Compound 242, 3-(4,6-Bis(((R)-1,1,1-trifluoropropan-2-yl)amino)-1,3,5-triazin-2-yl)-2,6-difluoro-cyclohex-2-en-1-one]	802 nM	3520 nM	–	–
CC(C)Nc1nc(N[C@H](C)C(F)(F)F)nc(C2=C(F)C(O)CCC2)n1 (mixture of isomers) [Compound 1, 2-Fluoro-3-(4-(isopropylamino)-6-(((R)-1,1,1-trifluoropropan-2-yl)amino)-1,3,5-triazin-2-yl)cyclohex-2-en-1-ol]	97 nM	–	73.8%	83.5%
CC(C)Nc1nc(Nc2ccc3sncc3c2)nc(C2=C(F)C(O)CCC2)n1 (centres unmarked) [Compound 65]	152 nM	> 10000 nM	–	–
C[C@@H](Nc1nc(NCC2CC2)nc(C2=C(F)C(O)C(F)CC2)n1)C(F)(F)F (single isomer, unassigned) [Compound 225]	36 nM	917 nM	–	–
C[C@@H](Nc1nc(N[C@H](C)C(F)(F)F)c(F)c(C2=CC(O)CCC2)n1)C(F)(F)F (mixture of isomers) [Compound 207, 3-(5-fluoro-2,6-bis(((R)-1,1,1-trifluoropropan-2-yl)amino)pyrimidin-4-yl)cyclohex-2-en-1-ol]	564 nM	1510 nM	–	–
